Source: ChEMBL document CHEMBL1201862, “PubChem BioAssay data set” (2004)
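All cell lines were grown in 96-well plates and treated with compound for 48 hours. GI50: concentration for 50% inhibition of growth.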 Active and inactive are the calls of the source. Rule as the data show it: active = GI50 up to about 1.1 µM and inactive = higher.

Columns and labels:
Test in all cases: NCI anticancer screen, dose series, 48 h
[1] = system: A549
[2] = system: CAKI-1
[3] = system: COLO 205
[4] = system: HCC 2998
[5] = system: HCT-116
[6] = system: HOP-92
[7] = system: HT-29
[8] = system: KM12
[9] = system: M14
[10] = system: MCF7
[11] = system: MDA-N
[12] = system: NCI-H226
[13] = system: NCI-H23
[14] = system: NCI-H460
[15] = system: OVCAR-8
[16] = system: SN12C
[17] = system: SNB-19
[18] = system: UO-31
[19] = system: Malme-3M
[20] = system: SF-268

SMILES	GI50 [1]	GI50 [2]	GI50 [3]	GI50 [4]	GI50 [5]	GI50 [6]	GI50 [7]	GI50 [8]	GI50 [9]	GI50 [10]	GI50 [11]	GI50 [12]	GI50 [13]	GI50 [14]	GI50 [15]	GI50 [16]	GI50 [17]	GI50 [18]	GI50 [19]	GI50 [20]
CC(C)(C)[Si](C)(C)OCC1OC(n2ccc(=O)[nH]c2=O)C(O[Si](C)(C)C(C)(C)C)/C1=N/O (centres undefined)	3.14 µM (inactive)	7.71 µM (inactive)	2.42 µM (inactive)	3.37 µM (inactive)	2.45 µM (inactive)	2.77 µM (inactive)	2.84 µM (inactive)	3.54 µM (inactive)	3.33 µM (inactive)	3.47 µM (inactive)	4.08 µM (inactive)	2.82 µM (inactive)	3.44 µM (inactive)	3.44 µM (inactive)	3.33 µM (inactive)	3.3 µM (inactive)	4.49 µM (inactive)	3.61 µM (inactive)	–	–
COC(=O)C(=O)C(C(=O)C(=O)Nc1nc2ccc(C)cc2s1)c1nc2ccc([N+](=O)[O-])cc2nc1O (centres undefined)	> 100 µM (inactive)	> 100 µM (inactive)	–	> 100 µM (inactive)	> 100 µM (inactive)	65.2 µM (inactive)	> 100 µM (inactive)	> 100 µM (inactive)	> 100 µM (inactive)	> 100 µM (inactive)	> 100 µM (inactive)	> 100 µM (inactive)	> 100 µM (inactive)	> 100 µM (inactive)	> 100 µM (inactive)	> 100 µM (inactive)	72.6 µM (inactive)	58.5 µM (inactive)	> 100 µM (inactive)	> 100 µM (inactive)
COc1ccc2nc3n(c2c1)C(c1c(F)cccc1F)SC3 (centres undefined)	49 µM (inactive)	94 µM (inactive)	> 100 µM (inactive)	78 µM (inactive)	25.4 µM (inactive)	51.1 µM (inactive)	25.7 µM (inactive)	40.2 µM (inactive)	> 100 µM (inactive)	32 µM (inactive)	61.4 µM (inactive)	19.9 µM (inactive)	25.9 µM (inactive)	35 µM (inactive)	36.6 µM (inactive)	> 100 µM (inactive)	20.8 µM (inactive)	51.9 µM (inactive)	–	29 µM (inactive)
O=C(O)c1ccc(/C=N\N(CCO)C2=NCCN2)cc1	> 100 µM (inactive)	–	> 100 µM (inactive)	> 100 µM (inactive)	> 100 µM (inactive)	> 100 µM (inactive)	> 100 µM (inactive)	> 100 µM (inactive)	> 100 µM (inactive)	> 100 µM (inactive)	> 100 µM (inactive)	> 100 µM (inactive)	> 100 µM (inactive)	> 100 µM (inactive)	> 100 µM (inactive)	> 100 µM (inactive)	> 100 µM (inactive)	> 100 µM (inactive)	> 100 µM (inactive)	> 100 µM (inactive)
CCNc1cc2oc(=O)cc(C(F)(F)F)c2cc1C	> 100 µM (inactive)	> 100 µM (inactive)	> 100 µM (inactive)	> 100 µM (inactive)	> 100 µM (inactive)	64.4 µM (inactive)	> 100 µM (inactive)	> 100 µM (inactive)	> 100 µM (inactive)	> 100 µM (inactive)	> 100 µM (inactive)	> 100 µM (inactive)	> 100 µM (inactive)	> 100 µM (inactive)	> 100 µM (inactive)	> 100 µM (inactive)	> 100 µM (inactive)	> 100 µM (inactive)	–	> 100 µM (inactive)
CCCC(=O)OCC1(CO)C/C(=C/CC(C(C)C)C(C)C)C(=O)O1 (centres undefined)	> 100 µM (inactive)	> 100 µM (inactive)	> 100 µM (inactive)	> 100 µM (inactive)	> 100 µM (inactive)	97.7 µM (inactive)	> 100 µM (inactive)	44.5 µM (inactive)	–	> 100 µM (inactive)	> 100 µM (inactive)	> 100 µM (inactive)	> 100 µM (inactive)	> 100 µM (inactive)	> 100 µM (inactive)	> 100 µM (inactive)	> 100 µM (inactive)	> 100 µM (inactive)	64.4 µM (inactive)	> 100 µM (inactive)
COC(=O)C1(O)c2ccccc2N=C2C(=O)c3ccccc3N21 (centres undefined) [METHYLISATOID]	> 100 µM (inactive)	> 100 µM (inactive)	> 100 µM (inactive)	> 100 µM (inactive)	> 100 µM (inactive)	> 100 µM (inactive)	> 100 µM (inactive)	> 100 µM (inactive)	–	> 100 µM (inactive)	15.7 µM (inactive)	> 100 µM (inactive)	> 100 µM (inactive)	> 100 µM (inactive)	> 100 µM (inactive)	> 100 µM (inactive)	–	> 100 µM (inactive)	51.8 µM (inactive)	> 100 µM (inactive)
O=C(O)CN(CC(=O)O)C1CCCCC1N(CC(=O)O)CC(=O)NCCN=C=S (centres undefined)	> 100 µM (inactive)	> 100 µM (inactive)	–	> 100 µM (inactive)	> 100 µM (inactive)	> 100 µM (inactive)	> 100 µM (inactive)	> 100 µM (inactive)	> 100 µM (inactive)	> 100 µM (inactive)	> 100 µM (inactive)	> 100 µM (inactive)	> 100 µM (inactive)	> 100 µM (inactive)	> 100 µM (inactive)	> 100 µM (inactive)	> 100 µM (inactive)	> 100 µM (inactive)	> 100 µM (inactive)	> 100 µM (inactive)
O=c1[nH]nc(-c2ccccc2)n1/N=C/c1cccnc1	> 100 µM (inactive)	25.1 µM (inactive)	–	95.5 µM (inactive)	54.3 µM (inactive)	61.9 µM (inactive)	93.1 µM (inactive)	23.4 µM (inactive)	> 100 µM (inactive)	47.1 µM (inactive)	34.9 µM (inactive)	57.9 µM (inactive)	> 100 µM (inactive)	43.8 µM (inactive)	> 100 µM (inactive)	65 µM (inactive)	> 100 µM (inactive)	> 100 µM (inactive)	> 100 µM (inactive)	> 100 µM (inactive)
CC(=O)OC1CCC2C3CCc4c(C)ccc(OS(=O)(=O)c5ccccc5)c4C3CCC12C (centres undefined)	–	24 µM (inactive)	18.6 µM (inactive)	64.9 µM (inactive)	3.37 µM (inactive)	6.55 µM (inactive)	13.1 µM (inactive)	–	–	16.2 µM (inactive)	> 100 µM (inactive)	14.8 µM (inactive)	16.3 µM (inactive)	6.61 µM (inactive)	–	> 100 µM (inactive)	47.1 µM (inactive)	21.9 µM (inactive)	50.4 µM (inactive)	> 100 µM (inactive)
O=C(CCCN1CCC2(CC1)NC(=O)c1ccccc1O2)c1ccc(F)cc1	> 100 µM (inactive)	> 100 µM (inactive)	50.1 µM (inactive)	> 100 µM (inactive)	> 100 µM (inactive)	> 100 µM (inactive)	43.3 µM (inactive)	> 100 µM (inactive)	87.7 µM (inactive)	94.6 µM (inactive)	> 100 µM (inactive)	> 100 µM (inactive)	> 100 µM (inactive)	> 100 µM (inactive)	> 100 µM (inactive)	> 100 µM (inactive)	–	73.5 µM (inactive)	70.6 µM (inactive)	> 100 µM (inactive)
C/C(=C1/N=C(c2ccccc2)OC1=O)c1ccc(C)cc1	> 100 µM (inactive)	> 100 µM (inactive)	> 100 µM (inactive)	> 100 µM (inactive)	> 100 µM (inactive)	> 100 µM (inactive)	> 100 µM (inactive)	> 100 µM (inactive)	> 100 µM (inactive)	> 100 µM (inactive)	> 100 µM (inactive)	> 100 µM (inactive)	> 100 µM (inactive)	> 100 µM (inactive)	> 100 µM (inactive)	> 100 µM (inactive)	> 100 µM (inactive)	–	> 100 µM (inactive)	> 100 µM (inactive)
COc1cc2c(cc1OCCCNC(=O)c1cc3ccccc3[nH]1)N=C[C@@H]1CCCN1C2=O	0.632 µM (active)	0.296 µM (active)	0.391 µM (active)	0.664 µM (active)	0.24 µM (active)	7.43 µM (inactive)	0.296 µM (active)	0.241 µM (active)	0.305 µM (active)	0.258 µM (active)	0.254 µM (active)	0.313 µM (active)	0.504 µM (active)	0.675 µM (active)	0.301 µM (active)	0.409 µM (active)	0.445 µM (active)	0.318 µM (active)	–	0.082 µM (active)
C=C1CC=CC(C)(C)C1C/C=C(\C)C(O)CBr (centres undefined)	74.3 µM (inactive)	23.2 µM (inactive)	39 µM (inactive)	87.9 µM (inactive)	18.7 µM (inactive)	30.9 µM (inactive)	51.8 µM (inactive)	77.1 µM (inactive)	82.6 µM (inactive)	36.2 µM (inactive)	42.6 µM (inactive)	37.5 µM (inactive)	> 100 µM (inactive)	95.7 µM (inactive)	29.4 µM (inactive)	> 100 µM (inactive)	> 100 µM (inactive)	35.7 µM (inactive)	–	> 100 µM (inactive)
O=C(O)c1c(O)c2cc(Br)ccc2oc1=O	> 100 µM (inactive)	> 100 µM (inactive)	> 100 µM (inactive)	> 100 µM (inactive)	> 100 µM (inactive)	72.1 µM (inactive)	> 100 µM (inactive)	–	> 100 µM (inactive)	> 100 µM (inactive)	> 100 µM (inactive)	> 100 µM (inactive)	> 100 µM (inactive)	> 100 µM (inactive)	> 100 µM (inactive)	> 100 µM (inactive)	> 100 µM (inactive)	–	> 100 µM (inactive)	> 100 µM (inactive)
